Measured values taken from patent publication US11390604B2 (Hoffmann-La Roche Inc., priority 2019, dated 2022).
Structures can show the parent of a compound that is named as a salt. Where two headings read alike, the source gives them in different places.

System: Acinetobacter baumannii ATCC 17961
Test: Antimicrobial susceptibility testing: 90% growth inhibitory concentration (IC90) determination
Format: cell-based
Protocol: Antimicrobial Susceptibility Testing:
90% Growth Inhibitory Concentration (IC90) Determination
The in vitro antimicrobial activity of the compounds was determined according to the following procedure:
The assay used a 10-points Iso-Sensitest broth medium to measure quantitatively the in vitro activity of the compounds against Acinetobacter baumannii ATCC 17961.
Stock compounds in DMSO were serially twofold diluted (e.g. range from 50 to 0.097 μM final concentration) in 384 wells microtiter plates and inoculated with 49 μl the bacterial suspension in Iso-Sensitest medium to have a final cell concentration of ˜5×10^(5) CFU/ml in a final volume/well of 50 ul/well. Microtiter plates were incubated at 35±2° C.
Bacterial cell growth was determined with the measurement of optical density at X=600 nm each 20 minutes over a time course of 16 h. Growth inhibition was calculated during the logarithmic growth of the bacterial cells with determination of the concentration inhibiting 50% (IC50) and 90% (IC90) of the growth.
Table 1 provides the 90% growth inhibitory concentrations (IC90) in micromoles per liter of the compounds of present disclosure obtained against the strain Acinetobacter baumannii ATCC 17961.

[1] = ATCC17961, Acinetobacter baumannii ATCC 17961, Iso-Sensitest broth, read-out: ATCC 17961 IC90
[2] = Acinetobacter baumannii, ATCC17961, read-out: ATCC 17961 IC90, Acinetobacter baumannii ATCC 17961, Iso-Sensitest broth

Compound	IC90 [1] [nM]	IC90 [2] [nM]
C#CCn1cc(-c2cnc(C(=O)Nc3ccc(C(=O)NC[C@H]4CCNC4)c(Cl)c3)n2C)c(C(F)(F)F)n1 [Example 32, (S)-N-(3-chloro-4-((pyrrolidin-3-ylmethyl)carbamoyl)phenyl)-1-methyl-5-(1-(prop-2-yn-1-yl)-3-(trifluoromethyl)-1H-pyrazol-4-yl)-1H-imidazole-2-carboxamide hydrochloride]	896	
Cn1c(-c2cn(CC3CC3)nc2C(F)(F)F)cnc1C(=O)Nc1ccc(C(=O)N2CCN(C(=O)N[C@H]3C[C@@H](N)C3)CC2)c(Cl)c1 [Example 203, rac-N-((1s,3s)-3-aminocyclobutyl)-4-(2-chloro-4-(5-(1-(cyclopropylmethyl)-3-(trifluoromethyl)-1H-pyrazol-4-yl)-1-methyl-1H-imidazole-2-carboxamido)benzoyl)piperazine-1-carboxamide]	222	
CCc1cc(NC(=O)c2ncc(-c3cn(CC(F)F)nc3C(F)(F)F)n2C)ccc1C(=O)N1CCN(C(=O)NCC2(O)CNC2)CC1 [Example 157, 4-[4-[[5-[1-(2,2-difluoroethyl)-3-(trifluoromethyl)pyrazol-4-yl]-1-methylimidazole-2-carbonyl]amino]-2-ethylbenzoyl]-N-[(3-hydroxyazetidin-3-yl)methyl]piperazine-1-carboxamide;formic acid]	1000	
Cn1c(-c2cn(C3CC3(F)F)nc2C(F)(F)F)cnc1C(=O)Nc1ccc(C(=O)NC2CCN(C(=O)N[C@H]3C[C@@H](N)C3)CC2)c(Cl)c1 (mixture of isomers) [Example 237, rac-N-((1s,3s)-3-aminocyclobutyl)-4-(2-chloro-4-(5-(1-(2,2-difluorocyclopropyl)-3-(trifluoromethyl)-1H-pyrazol-4-yl)-1-methyl-1H-imidazole-2-carboxamido)benzamido)piperi-dine-1-carboxamide formate]	271	
Cn1c(-c2cn([C@H]3CC3(F)F)nc2C(F)(F)F)cnc1C(=O)Nc1ccc(C(=O)N[C@H]2[C@@H]3CN(C(=O)N[C@@H]4CNC[C@H]4O)C[C@@H]32)c(Cl)c1 [Example 182, (1S,5R)-6-[[2-chloro-4-[[5-[1-[(1S)-2,2-difluorocyclopropyl]-3-(trifluoromethyl)pyrazol-4-yl]-1-methyl-imidazole-2-carbonyl]amino]benzoyl]amino]-N-[(3R,4R)-4-hydroxypyrrolidin-3-yl]-3-azabicyclo[3.1.0]hexane-3-carboxamide]	110	
Cn1c(-c2cn(CC3CC3)nc2C(F)(F)F)cnc1C(=O)Nc1ccc(C(=O)N2CCN(C(=O)N[C@H]3C[C@@H](N)C3)CC2)c(Cl)c1 [Example 169, rac-N-((1s,3s)-3-aminocyclobutyl)-4-(2-chloro-4-(5-(1-(cyclopropylmethyl)-3-(trifluoromethyl)-1H-pyrazol-4-yl)-1-methyl-1H-imidazole-2-carboxamido)benzoyl)piperazine-1-carboxamide Hydrochloride]		245
Cn1c(-c2cn(C3CC3(F)F)nc2C(F)(F)F)cnc1C(=O)Nc1ccc(C(=O)NC2CNCC2O)c(Cl)c1 (stereo not drawn) [Example 341, N-(3-chloro-4-((4-hydroxypyrrolidin-3-yl)carbamoyl)phenyl)-5-(1-(2,2-difluorocyclopropyl)-3-(trifluoromethyl)-1H-pyrazol-4-yl)-1-methyl-1H-imidazole-2-carboxamide formate]	430	
Cn1c(-c2cn(C3CC3(F)F)nc2C(F)(F)F)cnc1C(=O)Nc1ccc(C(=O)NCCCCNC(=O)OC(C)(C)C)c(Cl)c1 (stereo not drawn) [Example 314, tert-butyl (4-(2-chloro-4-(5-(1-(2,2-difluorocyclopropyl)-3-(trifluoromethyl)-1H-pyrazol-4-yl)-1-methyl-1H-imidazole-2-carboxamido)benzamido)butyl) carbamate]	388	
C=C=Cn1cc(-c2cnc(C(=O)Nc3ccc(C(=O)N4CCN(C(=O)C5CCNCC5)CC4)c(Cl)c3)n2C)c(C(F)(F)F)n1 [Example 65, N-[3-chloro-4-[4-(piperidine-4-carbonyl)piperazine-1-carbonyl]phenyl]-1-methyl-5-[1-propa-1,2-dienyl-3-(trifluoromethyl)pyrazol-4-yl]imidazole-2-carboxamide; Hydrochloride]		260

Second part, led by results:

IC90 [1] [nM]	Compound	IC90 [2] [nM]
344	Cn1c(-c2cn(CC3CC(F)(F)C3)nc2C(F)(F)F)cnc1C(=O)Nc1ccc(C(=O)N2CCN(C(=O)C3CCNCC3)CC2)c(Cl)c1 [Example 111, N-[3-chloro-4-[4-(piperidine-4-carbonyl)piperazine-1-carbonyl]phenyl]-5-[1-[(3,3-difluorocyclobutyl)methyl]-3-(trifluoromethyl)pyrazol-4-yl]-1-methylimidazole-2-carboxamide;hydrochloride]	
434	Cn1c(-c2cn(CC(F)F)nc2C(F)(F)F)cnc1C(=O)Nc1ccc(C(=O)N2CCN(C(=O)NC3CNC3)CC2)c(Cl)c1 [Example 146, N-(azetidin-3-yl)-4-[2-chloro-4-[[5-[1-(2,2-difluoroethyl)-3-(trifluoromethyl)pyrazol-4-yl]-1-methylimidazole-2-carbonyl]amino]benzoyl]piperazine-1-carboxamide;formic acid]	
447	Cn1c(-c2cn(C3CC3)nc2C(F)(F)F)cnc1C(=O)Nc1ccc(C(=O)N2CCN(C(=O)[C@H]3CCN3)CC2)c(Cl)c1 [Example 348, (R)-N-(4-(4-(azetidine-2-carbonyl)piperazine-1-carbonyl)-3-chlorophenyl)-5-(1-cyclopropyl-3-(trifluoromethyl)-1H-pyrazol-4-yl)-1-methyl-1H-imidazole-2-carboxamide hydrochloride]	
332	Cn1c(-c2cn(C3CC3(F)F)nc2C(F)(F)F)cnc1C(=O)Nc1ccc(C(=O)N2CCN(C(=O)C3CCNCC3)CC2)c(Cl)c1 (stereo not drawn) [Example 267, N-(3-chloro-4-(4-(piperidine-4-carbonyl)piperazine-1-carbonyl)phenyl)-5-(1-(2,2-difluorocyclopropyl)-3-(trifluoromethyl)-1H-pyrazol-4-yl)-1-methyl-1H-imidazole-2-carboxamide formate]	
257	C#CCn1cc(-c2cnc(C(=O)Nc3ccc(C(=O)N4CCN(C(=O)C5(O)CCNCC5)CC4)c(Cl)c3)n2C)c(C(F)(F)F)n1 [Example 39, N-[3-chloro-4-[4-(4-hydroxypiperidine-4-carbonyl)piperazine-1-carbonyl]phenyl]-1-methyl-5-[1-prop-2-ynyl-3-(trifluoromethyl)pyrazol-4-yl]imidazole-2-carboxamide hydrochloride]	
371	Cn1c(-c2cn(CC(F)F)nc2C(F)(F)F)cnc1C(=O)Nc1ccc(C(=O)N2CCN(C(=O)NCC3(O)CNC3)CC2)c(Cl)c1 [Example 303, 4-[2-chloro-4-[[5-[1-(2,2-difluoroethyl)-3-(trifluoromethyl)pyrazol-4-yl]-1-methyl-imidazole-2-carbonyl]amino]benzoyl]-N-[(3-hydroxyazetidin-3-yl)methyl]piperazine-1-carboxamide; formic acid]	
676	Cn1c(-c2cn(CC#CCO)nc2C(F)(F)F)cnc1C(=O)Nc1ccc(C(=O)N2CCN(C(=O)C3CCNCC3)CC2)c(Cl)c1 [Example 6, N-(3-chloro-4-(4-(piperidine-4-carbonyl)piperazine-1-carbonyl)phenyl)-5-(1-(4-hydroxybut-2-yn-1-yl)-3-(trifluoromethyl)-1H-pyrazol-4-yl)-1-methyl-1H-imidazole-2-carboxamide hydrochloride]	
489	Cn1c(-c2cn(CCF)nc2C(F)(F)F)cnc1C(=O)Nc1ccc(C(=O)N2CCNCC2)c(Cl)c1 [Example 68, N-[3-chloro-4-(piperazine-1-carbonyl)phenyl]-5-[1-(2-fluoroethyl)-3-(trifluoromethyl)pyrazol-4-yl]-1-methylimidazole-2-carboxamide;hydrochloride]	
308	Cn1c(-c2cn(C3CC3)nc2C(F)(F)F)cnc1C(=O)Nc1ccc(C(=O)N2CCN(C(=O)CCN)CC2)c(Cl)c1 [Example 252, N-(4-(4-(3-aminopropanoyl)piperazine-1-carbonyl)-3-chlorophenyl)-5-(1-cyclopropyl-3-(trifluoromethyl)-1H-pyrazol-4-yl)-1-methyl-1H-imidazole-2-carboxamide hydrochloride]	
343	Cn1c(-c2cn(CC3CCC3)nc2C(F)(F)F)cnc1C(=O)Nc1ccc(C(=O)N2CCN(C(=O)[C@H]3C[C@H](N)C3)CC2)c(Cl)c1 [Example 276, rac-N-(4-(4-((1r,3r)-3-aminocyclobutane-1-carbonyl)piperazine-1-carbonyl)-3-chlorophenyl)-5-(1-(cyclobutylmethyl)-3-(trifluoromethyl)-1H-pyrazol-4-yl)-1-methyl-1H-imidazole-2-carboxamide hydrochloride]	
358	C=CCn1cc(-c2cnc(C(=O)Nc3ccc(C(=O)N4CCN(C(=O)C5CCNCC5)CC4)c(Cl)c3)n2C)c(C(F)(F)F)n1 [Example 7, 5-(1-allyl-3-(trifluoromethyl)-1H-pyrazol-4-yl)-N-(3-chloro-4-(4-(piperidine-4-carbonyl)piperazine-1-carbonyl)phenyl)-1-methyl-1H-imidazole-2-carboxamide hydrochloride]	
160	C#CCn1cc(-c2cnc(C(=O)Nc3ccc(C(=O)N4CCN(C(=O)N[C@H]5CCC[C@H]5N)CC4)c(Cl)c3)n2C)c(C(F)(F)F)n1 [Example 82, N-[(1S,2R)-2-aminocyclopentyl]-4-[2-chloro-4-[[1-methyl-5-[1-prop-2-ynyl-3-(trifluoromethyl)pyrazol-4-yl]imidazole-2-carbonyl]amino]benzoyl]piperazine-1-carboxamide]	
